Test results: publication PMC8213057, “Targeting ALK2: An Open Science Approach to Developing Therapeutics for the Treatment of Diffuse Intrinsic Pontine Glioma” (Journal of Medicinal Chemistry, 2020)
pIC50: −log10 of the molar value.

Assays:
PAK2 = PAK2 (Homo sapiens, UniProt Q13177); settings: 1 μM; Run 1, Run 2
MEKK2 = target: T1, MEKK2 (Homo sapiens, UniProt Q9Y2U5); assay: biochemical; settings: read-out: % enzyme activity, 1 μM; Run 1, Run 2
T1 sequence (Q9Y2U5 1-619): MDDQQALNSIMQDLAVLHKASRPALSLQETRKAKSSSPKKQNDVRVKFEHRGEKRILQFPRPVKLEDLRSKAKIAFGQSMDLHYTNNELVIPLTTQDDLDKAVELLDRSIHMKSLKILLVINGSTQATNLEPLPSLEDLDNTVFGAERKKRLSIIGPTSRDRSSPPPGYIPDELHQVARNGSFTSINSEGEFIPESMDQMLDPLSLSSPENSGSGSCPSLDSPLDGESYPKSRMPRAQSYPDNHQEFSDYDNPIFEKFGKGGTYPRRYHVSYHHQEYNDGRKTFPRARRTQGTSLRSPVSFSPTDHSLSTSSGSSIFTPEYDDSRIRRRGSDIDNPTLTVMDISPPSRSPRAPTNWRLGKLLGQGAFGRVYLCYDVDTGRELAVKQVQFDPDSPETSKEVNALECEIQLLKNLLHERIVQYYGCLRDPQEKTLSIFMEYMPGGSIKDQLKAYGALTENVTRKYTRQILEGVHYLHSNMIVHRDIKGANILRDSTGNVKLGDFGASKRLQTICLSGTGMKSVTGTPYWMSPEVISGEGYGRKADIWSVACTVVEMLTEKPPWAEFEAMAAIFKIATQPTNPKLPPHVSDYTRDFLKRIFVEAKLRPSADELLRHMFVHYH

CYP1A2 = target: T2, CYP1A2 (Homo sapiens, UniProt P05177); assay: CYP inhibition assay; format: in vitro ADME; settings: human liver microsomes
T2 construct: tissue Corning 452117; host or cells: pooled human liver microsomes (UltraPool HLM 150, mixed gender)

ZAP70 = target: T3, ZAP70 (Homo sapiens, UniProt P43403); assay: biochemical; settings: read-out: % enzyme activity, 1 μM; Run 1, Run 2
T3 sequence (P43403 1-619): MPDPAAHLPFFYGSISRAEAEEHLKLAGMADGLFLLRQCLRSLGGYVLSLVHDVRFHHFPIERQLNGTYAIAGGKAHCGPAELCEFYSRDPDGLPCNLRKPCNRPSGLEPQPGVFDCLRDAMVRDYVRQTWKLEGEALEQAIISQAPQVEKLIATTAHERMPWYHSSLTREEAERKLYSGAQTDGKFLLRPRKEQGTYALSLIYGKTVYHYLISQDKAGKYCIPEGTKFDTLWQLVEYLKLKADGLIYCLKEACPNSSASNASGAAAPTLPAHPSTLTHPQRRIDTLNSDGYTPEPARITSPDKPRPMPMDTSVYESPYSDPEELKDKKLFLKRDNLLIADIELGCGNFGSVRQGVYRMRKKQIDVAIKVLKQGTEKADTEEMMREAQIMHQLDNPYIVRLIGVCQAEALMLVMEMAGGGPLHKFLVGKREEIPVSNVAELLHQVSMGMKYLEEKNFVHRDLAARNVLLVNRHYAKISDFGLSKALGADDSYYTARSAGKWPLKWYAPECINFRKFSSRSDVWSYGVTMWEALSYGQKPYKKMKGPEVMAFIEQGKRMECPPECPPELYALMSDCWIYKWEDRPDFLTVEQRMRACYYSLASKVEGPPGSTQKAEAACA

CAMK1g = CAMK1g (Homo sapiens, UniProt Q96NX5); assay: biochemical; settings: read-out: % enzyme activity, 1 μM; Run 1, Run 2
SGK3/SGKL = target: T4, SGK3/SGKL (Homo sapiens, UniProt Q96BR1); assay: biochemical; settings: read-out: % enzyme activity, 1 μM; Run 1, Run 2
T4 sequence (Q96BR1 1-496): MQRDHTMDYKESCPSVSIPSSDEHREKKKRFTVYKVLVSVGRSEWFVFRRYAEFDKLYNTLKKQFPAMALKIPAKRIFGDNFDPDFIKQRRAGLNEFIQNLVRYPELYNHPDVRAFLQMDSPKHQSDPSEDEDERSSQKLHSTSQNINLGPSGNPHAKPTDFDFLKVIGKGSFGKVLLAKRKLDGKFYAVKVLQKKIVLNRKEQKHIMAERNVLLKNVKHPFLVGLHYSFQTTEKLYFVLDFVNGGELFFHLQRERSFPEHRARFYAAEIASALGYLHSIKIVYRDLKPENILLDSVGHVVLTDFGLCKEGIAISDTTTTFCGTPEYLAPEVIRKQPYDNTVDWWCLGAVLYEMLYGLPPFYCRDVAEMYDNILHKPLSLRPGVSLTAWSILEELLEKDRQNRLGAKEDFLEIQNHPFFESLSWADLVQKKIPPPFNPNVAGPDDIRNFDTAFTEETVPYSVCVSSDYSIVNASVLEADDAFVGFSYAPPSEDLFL

LCK2/ICK = target: T5, LCK2/ICK (Homo sapiens, UniProt Q9UPZ9); assay: biochemical; settings: read-out: % enzyme activity, 1 μM; Run 1, Run 2
T5 sequence (Q9UPZ9 1-632): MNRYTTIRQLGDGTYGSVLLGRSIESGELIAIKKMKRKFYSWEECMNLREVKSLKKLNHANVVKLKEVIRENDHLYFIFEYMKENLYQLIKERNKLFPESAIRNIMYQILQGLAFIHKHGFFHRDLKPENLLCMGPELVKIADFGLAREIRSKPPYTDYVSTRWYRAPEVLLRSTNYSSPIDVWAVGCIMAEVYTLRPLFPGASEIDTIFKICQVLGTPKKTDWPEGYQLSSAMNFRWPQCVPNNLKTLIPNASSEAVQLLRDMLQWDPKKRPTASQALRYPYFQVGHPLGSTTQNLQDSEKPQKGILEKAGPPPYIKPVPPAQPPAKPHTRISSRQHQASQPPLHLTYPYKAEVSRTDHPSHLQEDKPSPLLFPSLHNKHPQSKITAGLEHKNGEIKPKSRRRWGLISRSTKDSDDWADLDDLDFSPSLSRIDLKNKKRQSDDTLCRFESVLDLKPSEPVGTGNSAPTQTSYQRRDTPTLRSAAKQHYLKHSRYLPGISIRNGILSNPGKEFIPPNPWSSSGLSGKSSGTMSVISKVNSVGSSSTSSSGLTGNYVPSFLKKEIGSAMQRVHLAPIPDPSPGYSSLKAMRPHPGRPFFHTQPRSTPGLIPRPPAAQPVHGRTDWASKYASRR

T2 sequence (P05177 whole entry): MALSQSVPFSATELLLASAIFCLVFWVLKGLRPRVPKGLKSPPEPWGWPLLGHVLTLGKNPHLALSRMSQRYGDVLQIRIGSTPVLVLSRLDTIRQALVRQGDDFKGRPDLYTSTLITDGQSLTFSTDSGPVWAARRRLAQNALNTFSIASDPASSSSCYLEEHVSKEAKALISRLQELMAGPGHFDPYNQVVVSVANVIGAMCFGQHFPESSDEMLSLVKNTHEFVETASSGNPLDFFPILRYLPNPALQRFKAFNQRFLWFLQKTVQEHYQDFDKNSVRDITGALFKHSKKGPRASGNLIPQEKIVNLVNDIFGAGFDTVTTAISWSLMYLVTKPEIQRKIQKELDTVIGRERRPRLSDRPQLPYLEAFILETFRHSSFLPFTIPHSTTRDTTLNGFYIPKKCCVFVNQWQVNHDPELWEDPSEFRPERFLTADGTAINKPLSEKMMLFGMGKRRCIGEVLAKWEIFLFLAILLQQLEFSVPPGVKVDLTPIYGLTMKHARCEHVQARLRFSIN
Chain of PAK2 (Q13177 whole entry): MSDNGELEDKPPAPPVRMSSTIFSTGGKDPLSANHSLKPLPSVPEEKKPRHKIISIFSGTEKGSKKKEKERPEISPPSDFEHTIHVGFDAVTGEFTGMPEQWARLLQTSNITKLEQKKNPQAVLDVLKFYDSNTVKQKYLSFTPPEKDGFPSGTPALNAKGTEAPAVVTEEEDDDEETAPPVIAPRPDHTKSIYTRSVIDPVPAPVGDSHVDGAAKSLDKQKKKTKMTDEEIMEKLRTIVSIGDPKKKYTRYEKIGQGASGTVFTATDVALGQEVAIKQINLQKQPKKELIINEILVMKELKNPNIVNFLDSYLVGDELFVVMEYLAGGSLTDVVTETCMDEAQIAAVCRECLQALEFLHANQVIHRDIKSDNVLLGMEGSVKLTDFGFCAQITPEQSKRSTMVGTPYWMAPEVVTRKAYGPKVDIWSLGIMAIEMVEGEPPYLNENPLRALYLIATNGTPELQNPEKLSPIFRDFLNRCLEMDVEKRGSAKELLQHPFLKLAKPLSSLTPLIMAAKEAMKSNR
Chain of CAMK1g (Q96NX5 whole entry): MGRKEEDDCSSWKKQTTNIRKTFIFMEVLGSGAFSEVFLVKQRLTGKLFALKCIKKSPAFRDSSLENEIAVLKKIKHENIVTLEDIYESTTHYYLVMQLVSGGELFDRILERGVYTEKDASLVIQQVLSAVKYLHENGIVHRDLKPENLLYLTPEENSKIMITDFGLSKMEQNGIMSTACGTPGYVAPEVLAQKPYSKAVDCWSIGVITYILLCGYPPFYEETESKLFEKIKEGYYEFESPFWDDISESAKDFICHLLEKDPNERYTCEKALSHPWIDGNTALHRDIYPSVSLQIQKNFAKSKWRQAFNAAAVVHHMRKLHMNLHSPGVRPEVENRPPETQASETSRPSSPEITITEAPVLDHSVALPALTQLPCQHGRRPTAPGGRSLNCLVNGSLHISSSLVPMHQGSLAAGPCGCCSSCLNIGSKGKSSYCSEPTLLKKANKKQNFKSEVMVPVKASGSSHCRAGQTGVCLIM

Compound	% enzyme activity (PAK2)	remaining activity at 1 µM (MEKK2)	pIC50 (CYP1A2)	remaining activity at 1 µM (ZAP70)	remaining activity at 1 µM (CAMK1g)	remaining activity at 1 µM (SGK3/SGKL)	remaining activity at 1 µM (LCK2/ICK)
COc1cc(-c2cncc(-c3ccc(N4CCN(C)CC4)cc3)c2C)cc(F)c1C(N)=O [Compound 26a, 2-Fluoro-6-methoxy-4-(4-methyl-5-(4-(4-methylpiperazin-1-yl)phenyl)pyridin-3-yl)benzamide]	100.35%	95%	< 4.30	96.2%	102%	103%	108%
COc1cc(-c2cncc(-c3ccc(N4C[C@@H](C)N(C)[C@@H](C)C4)cc3)c2C)cc(F)c1C(N)=O [Compound 26c, 2-Fluoro-6-methoxy-4-(4-methyl-5-(4-((3R,5S)-3,4,5-trimethylpiperazin-1-yl)phenyl)pyridin-3-yl)benzamide]	103.95%	98.8%	< 4.30	98.7%	108%	94.8%	97.5%
